Species: Rattus norvegicus
Assay: DrugMatrix - Regimen: Daily Repeat
Format: toxicity, organism-based, Sprague-Dawley
Set-up: regimen Daily Repeat, gender Male, age 6-8 weeks
Conditions: in vivo, po, 90 mg/kg, route oral GAVAGE, dose level Low, vehicle 100 % WATER; for ALANINE AMINOTRANSFERASE / ALBUMIN / ALKALINE PHOSPHATASE / ASPARTATE AMINOTRANSFERASE / BLOOD UREA NITROGEN / CARBON DIOXIDE / CHLORIDE / CHOLESTEROL / CREATINE PHOSPHOKINASE / CREATININE / LACTATE DEHYDROGENASE / LIPASE / PHOSPHORUS / POTASSIUM / SODIUM / TOTAL BILIRUBIN / TOTAL PROTEIN / URIC ACID: tissue Plasma
[1] = 120 h, tissue Blood, time 5 day

CC(NC(C)(C)C)C(=O)c1cccc(Cl)c1 (stereo not drawn) [BUPROPION]
ABSOLUTE BASOPHIL (72 h, tissue Blood, time 3 day): 0 CELLS/uL
ABSOLUTE EOSINOPHIL (72 h, tissue Blood, time 3 day): 0 CELLS/uL
ABSOLUTE LYMPHOCYTE (72 h, tissue Blood, time 3 day): 10359.67 CELLS/uL
ABSOLUTE MONOCYTE (72 h, tissue Blood, time 3 day): 103.67 CELLS/uL
ABSOLUTE SEGMENTED NEUTROPHIL (72 h, tissue Blood, time 3 day): 603.33 CELLS/uL
BASOPHIL (72 h, tissue Blood, time 3 day): 0%
EOSINOPHIL (72 h, tissue Blood, time 3 day): 0%
ERYTHROCYTE COUNT (72 h, tissue Blood, time 3 day): 5.5 x10E6/uL
HEMATOCRIT (72 h, tissue Blood, time 3 day): 35.63%
HEMOGLOBIN (72 h, tissue Blood, time 3 day): 13.4 G/DL
LEUKOCYTE COUNT (72 h, tissue Blood, time 3 day): 11.07 x10E3/uL
LYMPHOCYTE (72 h, tissue Blood, time 3 day): 93.67%
MEAN CORPUSCULAR HEMOGLOBIN (72 h, tissue Blood, time 3 day): 24.4 pg
MEAN CORPUSCULAR HEMOGLOBIN CONCENTRATION (72 h, tissue Blood, time 3 day): 37.63 G/DL
MEAN CORPUSCULAR VOLUME (72 h, tissue Blood, time 3 day): 64.83 fL
MONOCYTE (72 h, tissue Blood, time 3 day): 1%
NEUTROPHIL (72 h, tissue Blood, time 3 day): 5.33%
NUCLEATED RED BLOOD CELLS (72 h, tissue Blood, time 3 day): 0 /100WBC
PLATELET COUNT (72 h, tissue Blood, time 3 day): 1176 x10E3/uL
ALANINE AMINOTRANSFERASE (72 h, time 3 day): 40 u/L
ALBUMIN (72 h, time 3 day): 4.5 G/DL
ALKALINE PHOSPHATASE (72 h, time 3 day): 417.67 u/L
ASPARTATE AMINOTRANSFERASE (72 h, time 3 day): 84.67 u/L
BLOOD UREA NITROGEN (72 h, time 3 day): 16.33 mg/dL
CARBON DIOXIDE (72 h, time 3 day): 31 mmol/L
CHLORIDE (72 h, time 3 day): 99.33 MEQ/L
CHOLESTEROL (72 h, time 3 day): 95 mg/dL
CREATINE PHOSPHOKINASE (72 h, time 3 day): 325 u/L
CREATININE (72 h, time 3 day): 0.19 mg/dL
LACTATE DEHYDROGENASE (72 h, time 3 day): 154.67 u/L
LIPASE (72 h, time 3 day): 9 u/L
PHOSPHORUS (72 h, time 3 day): 10.93 mg/dL
POTASSIUM (72 h, time 3 day): 6.49 MEQ/L
SODIUM (72 h, time 3 day): 143.13 MEQ/L
TOTAL BILIRUBIN (72 h, time 3 day): 0.17 mg/dL
TOTAL PROTEIN (72 h, time 3 day): 6.53 G/DL
URIC ACID (72 h, time 3 day): 0.73 mg/dL
ABSOLUTE BASOPHIL [1]: 0 CELLS/uL
ABSOLUTE EOSINOPHIL [1]: 55.33 CELLS/uL
ABSOLUTE LYMPHOCYTE [1]: 14977 CELLS/uL
ABSOLUTE MONOCYTE [1]: 411.67 CELLS/uL
ABSOLUTE SEGMENTED NEUTROPHIL [1]: 2222.67 CELLS/uL
BASOPHIL [1]: 0%
EOSINOPHIL [1]: 0.33%
ERYTHROCYTE COUNT [1]: 5.73 x10E6/uL
HEMATOCRIT [1]: 37.5%
LEUKOCYTE COUNT [1]: 17.67 x10E3/uL
LYMPHOCYTE [1]: 86.67%
MEAN CORPUSCULAR HEMOGLOBIN [1]: 24.83 pg
MEAN CORPUSCULAR HEMOGLOBIN CONCENTRATION [1]: 37.83 G/DL
MEAN CORPUSCULAR VOLUME [1]: 65.57 fL
MONOCYTE [1]: 2%
NEUTROPHIL [1]: 11%
NUCLEATED RED BLOOD CELLS [1]: 0 /100WBC
PLATELET COUNT [1]: 1410.67 x10E3/uL
ALANINE AMINOTRANSFERASE (120 h, time 5 day): 37.67 u/L
ALBUMIN (120 h, time 5 day): 4.67 G/DL
ALKALINE PHOSPHATASE (120 h, time 5 day): 328 u/L
ASPARTATE AMINOTRANSFERASE (120 h, time 5 day): 72 u/L
BLOOD UREA NITROGEN (120 h, time 5 day): 17.33 mg/dL
CARBON DIOXIDE (120 h, time 5 day): 32.33 mmol/L
CHLORIDE (120 h, time 5 day): 100 MEQ/L
CHOLESTEROL (120 h, time 5 day): 93.67 mg/dL
CREATINE PHOSPHOKINASE (120 h, time 5 day): 263 u/L
CREATININE (120 h, time 5 day): 0.21 mg/dL
LACTATE DEHYDROGENASE (120 h, time 5 day): 145 u/L
LIPASE (120 h, time 5 day): 9.33 u/L
PHOSPHORUS (120 h, time 5 day): 12.6 mg/dL
POTASSIUM (120 h, time 5 day): 8.49 MEQ/L
SODIUM (120 h, time 5 day): 144.5 MEQ/L
TOTAL BILIRUBIN (120 h, time 5 day): 0.23 mg/dL
TOTAL PROTEIN (120 h, time 5 day): 6.77 G/DL
URIC ACID (120 h, time 5 day): 1.6 mg/dL
